From the supplement of paper PMC13380429

Experiments:
HepG2 [1] = assay: drug sensitivity score (DSS) for viability; higher = more toxic; extreme values may be limits of the assay; conditions: 72 h
Caco-2 [2] = assay: as above; conditions: 72 h
Vero E6 [3] = assay: as above; conditions: 72 h
U2OS [4] = assay: as above; conditions: 72 h
Calu-3 [5] = assay: as above; conditions: 72 h
HepG2 [6] = assay: relative viability EC50 (midpoint between 100% and the lowest measured viability); higher = less toxic; conditions: 72 h
Vero E6 [7] = assay: as above; conditions: 72 h
HepG2 [8] = assay: cell viability relative to DMSO; higher = less toxic; conditions: 72 h
Caco-2 [9] = assay: as above; conditions: 72 h
Vero E6 [10] = assay: as above; conditions: 72 h
U2OS [11] = assay: as above; conditions: 72 h
Calu-3 [12] = assay: as above; conditions: 72 h
[13] = tested on: A549-ACE2 infected with SARS-CoV-2; assay: cell count relative to DMSO; higher = less toxic; conditions: 24 h
[14] = tested on: A549-ACE2 infected with SARS-CoV-2; assay: SARS-CoV-2 infection rate relative to DMSO; higher = more infection; conditions: 24 h
[15] = tested on: A549-ACE2 infected with SARS-CoV-2; assay: morphology score (similarity to uninfected cells); higher = more like uninfected cells; conditions: 24 h
A549-ACE2 [16] = assay: phospholipidosis EC50; higher = less potent phospholipidosis inducer
A549-ACE2 [17] = assay: drug-induced phospholipidosis relative to tamoxifen; higher = more phospholipidosis
Caco-2 [18] = assay: relative viability EC50 (midpoint between 100% and the lowest measured viability); higher = less toxic; conditions: 72 h
U2OS [19] = assay: as above; conditions: 72 h
Calu-3 [20] = assay: as above; conditions: 72 h

CCOC(=O)c1c(C)[nH]c2ccc3c(c12)CN1CCc2cc(OC)ccc2C1O3 (centres undefined)
Conditions | drug sensitivity score | relative viability EC50 [µM]
Caco-2 [2] | 3.6 | –
Calu-3 [5] | 2.6 | –
HepG2 [1] | 7.1 | –
HepG2 [6] | – | 1.4
U2OS [4] | 2.2 | –
Vero E6 [3] | 1.1 | –
Vero E6 [7] | – | > 10

Conditions | SARS-CoV-2 infection rate [%] | cell count [%] | cell viability [%] | morphology score | phospholipidosis EC50 [µM]
A549-ACE2 [16], 24 h | – | – | – | – | 9.3
Caco-2 [9], 1 nM | – | – | 103 | – | –
Caco-2 [9], 10 nM | – | – | 98.8 | – | –
Caco-2 [9], 100 nM | – | – | 95.8 | – | –
Caco-2 [9], 1000 nM | – | – | 93.1 | – | –
Caco-2 [9], 10000 nM | – | – | 53.6 | – | –
Calu-3 [12], 1 nM | – | – | 102 | – | –
Calu-3 [12], 10 nM | – | – | 101 | – | –
Calu-3 [12], 100 nM | – | – | 109 | – | –
Calu-3 [12], 1000 nM | – | – | 98.4 | – | –
Calu-3 [12], 10000 nM | – | – | 53.6 | – | –
HepG2 [8], 1 nM | – | – | 93.2 | – | –
HepG2 [8], 10 nM | – | – | 92.8 | – | –
HepG2 [8], 100 nM | – | – | 97.2 | – | –
HepG2 [8], 1000 nM | – | – | 78.4 | – | –
HepG2 [8], 10000 nM | – | – | 29 | – | –
U2OS [11], 1 nM | – | – | 97.3 | – | –
U2OS [11], 10 nM | – | – | 100 | – | –
U2OS [11], 100 nM | – | – | 99.8 | – | –
U2OS [11], 1000 nM | – | – | 98.3 | – | –
U2OS [11], 10000 nM | – | – | 61 | – | –
Vero E6 [10], 1 nM | – | – | 102 | – | –
Vero E6 [10], 10 nM | – | – | 104 | – | –
Vero E6 [10], 100 nM | – | – | 92 | – | –
Vero E6 [10], 1000 nM | – | – | 91.5 | – | –
Vero E6 [10], 10000 nM | – | – | 80.1 | – | –
[13], 0.3 µM | – | 98 | – | – | –
[13], 3 µM | – | 112 | – | – | –
[13], 10 µM | – | 114 | – | – | –
[13], 30 µM | – | 92 | – | – | –
[14], 0.3 µM | 105 | – | – | – | –
[14], 3 µM | 59 | – | – | – | –
[14], 10 µM | 25 | – | – | – | –
[14], 30 µM | 26 | – | – | – | –
[15], 0.3 µM | – | – | – | -0.2 | –
[15], 3 µM | – | – | – | 0.69 | –
[15], 10 µM | – | – | – | 0.83 | –
[15], 30 µM | – | – | – | 0.42 | –

drug-induced phospholipidosis [%], A549-ACE2 [17]
Conditions | 0.3 µM | 0.833333 µM | 3.33333 µM | 6.66667 µM | 10 µM | 30 µM
24 h | 2.45 | 1.52 | 13.8 | 23.7 | 49.6 | 77.6
48 h | 1.49 | 1.91 | 7.41 | 9.35 | 10.9 | 99.9
72 h | 3.49 | 0.0297 | 4.37 | 8.63 | 10.6 | 83.4

Cc1[nH]c2ccccc2c1CCNC(=O)c1cccs1 [CK-636]
Conditions | drug sensitivity score | relative viability EC50 [µM]
Caco-2 [2] | 0.3 | –
Caco-2 [18] | – | > 10
Calu-3 [5] | 0 | –
Calu-3 [20] | – | > 10
HepG2 [1] | 0 | –
HepG2 [6] | – | > 10
U2OS [4] | 0 | –
U2OS [19] | – | > 10
Vero E6 [3] | 0 | –
Vero E6 [7] | – | > 10

Conditions | SARS-CoV-2 infection rate, [14] [%] | cell count, [13] [%] | cell viability, Caco-2 [9] [%] | cell viability, Calu-3 [12] [%] | cell viability, HepG2 [8] [%] | cell viability, U2OS [11] [%] | cell viability, Vero E6 [10] [%] | morphology score, [15]
1 nM | – | – | 98.9 | 100 | 99.8 | 94 | 104 | –
10 nM | – | – | 99.8 | 90.9 | 104 | 101 | 100 | –
100 nM | – | – | 91.4 | 91.8 | 102 | 94.9 | 103 | –
0.3 µM | 101 | 98 | – | – | – | – | – | -0.06
1000 nM | – | – | 99.6 | 99.7 | 99.8 | 100 | 97 | –
3 µM | 103 | 99 | – | – | – | – | – | -0.01
10000 nM | – | – | 84.1 | 93.2 | 104 | 93.2 | 99.3 | –
10 µM | 100 | 101 | – | – | – | – | – | 0.14
30 µM | 100 | 97 | – | – | – | – | – | 0.06

drug-induced phospholipidosis [%], A549-ACE2 [17]
Conditions | 0.3 µM | 0.833333 µM | 3.33333 µM | 6.66667 µM | 10 µM | 30 µM
24 h | 6.27 | 1.27 | 2.41 | 2.27 | 5.29 | 11.7
48 h | 3.87 | -1.04 | 2.68 | 4.83 | 2.67 | 12.2
72 h | 1.44 | -4.13 | 1.2 | 4.21 | 4.6 | 12.1

O=C(OC(C(F)(F)F)C(F)(F)F)N1CCN(Cc2cccc(Oc3ccccc3)c2)CC1 [JW-642]
Conditions | drug sensitivity score | relative viability EC50 [µM]
Caco-2 [2] | 0 | –
Caco-2 [18] | – | > 10
HepG2 [1] | 0 | –
HepG2 [6] | – | > 10
U2OS [4] | 0 | –
U2OS [19] | – | > 10
Vero E6 [3] | 0 | –
Vero E6 [7] | – | > 10

Conditions | SARS-CoV-2 infection rate [%] | cell count [%] | cell viability [%] | morphology score | phospholipidosis EC50 [µM]
A549-ACE2 [16], 24 h | – | – | – | – | 0.723
A549-ACE2 [16], 48 h | – | – | – | – | 1.17
A549-ACE2 [16], 72 h | – | – | – | – | 1.22
Caco-2 [9], 1 nM | – | – | 98.3 | – | –
Caco-2 [9], 10 nM | – | – | 106 | – | –
Caco-2 [9], 100 nM | – | – | 99.4 | – | –
Caco-2 [9], 1000 nM | – | – | 100 | – | –
Caco-2 [9], 10000 nM | – | – | 92.4 | – | –
HepG2 [8], 1 nM | – | – | 100 | – | –
HepG2 [8], 10 nM | – | – | 116 | – | –
HepG2 [8], 100 nM | – | – | 87.7 | – | –
HepG2 [8], 1000 nM | – | – | 109 | – | –
HepG2 [8], 10000 nM | – | – | 101 | – | –
U2OS [11], 1 nM | – | – | 101 | – | –
U2OS [11], 10 nM | – | – | 98.1 | – | –
U2OS [11], 100 nM | – | – | 102 | – | –
U2OS [11], 1000 nM | – | – | 95.7 | – | –
U2OS [11], 10000 nM | – | – | 97.6 | – | –
Vero E6 [10], 1 nM | – | – | 93.1 | – | –
Vero E6 [10], 10 nM | – | – | 106 | – | –
Vero E6 [10], 100 nM | – | – | 96.3 | – | –
Vero E6 [10], 1000 nM | – | – | 90.5 | – | –
Vero E6 [10], 10000 nM | – | – | 102 | – | –
[13], 0.3 µM | – | 103 | – | – | –
[13], 3 µM | – | 111 | – | – | –
[13], 10 µM | – | 105 | – | – | –
[13], 30 µM | – | 105 | – | – | –
[14], 0.3 µM | 100 | – | – | – | –
[14], 3 µM | 88 | – | – | – | –
[14], 10 µM | 99 | – | – | – | –
[14], 30 µM | 90 | – | – | – | –
[15], 0.3 µM | – | – | – | -0.02 | –
[15], 3 µM | – | – | – | 0.31 | –
[15], 10 µM | – | – | – | -0.04 | –
[15], 30 µM | – | – | – | 0.29 | –

drug-induced phospholipidosis [%], A549-ACE2 [17]
Conditions | 0.3 µM | 0.833333 µM | 3.33333 µM | 6.66667 µM | 10 µM | 30 µM
24 h | 6.56 | 21.9 | 39.6 | 46.5 | 46.2 | 54.6
48 h | 5.07 | 23.9 | 54.4 | 65.2 | 57.8 | 68.1
72 h | 4.87 | 23.8 | 62.1 | 70.4 | 64.8 | 73.8
